Data taken from patent US20240342127A1, “METHODS OF TREATING COPPER METABOLISM-ASSOCIATED DISEASES OR DISORDERS” (Alexion Pharmaceuticals, Inc., priority 2021, published 2024).

Legend:
[1] = in vivo
patients with WD = details: cited from earlier work
participants with WD = test system: participants with WD
Method: Incremental dose increases are permitted, but not required, up to a maximum of 60 mg/day.
In summary, the maximum daily dose permitted in this study (Study 302) has been set as […].

[2] = compared with other treatments; cited from earlier work

Bis-choline tetrathiomolybdate [BC-TTM]
effect of age, sex or body weight on PK [1]: not significant covariates
reduction of mean serum non-ceruloplasmin-bound Cu (NCC) compared with baseline (patients with WD; Week 24, 28 patients with WD, monotherapy): 72%
most frequently reported drug-related AEs (patients with WD; human, in vivo): changes in hematological parameters, fatigue, sulphur eructations, and other gastrointestinal symptoms
paradoxical neurological worsening upon treatment initiation (patients with WD; human, in vivo): No paradoxical neurological worsening was observed
patients with reversible liver function test elevations (patients with WD; human, in vivo): 39%
severity of most reported adverse events (patients with WD; human, in vivo): mild (Grade 1) to moderate (Grade 2)
tolerability of treatment (patients with WD; human, in vivo): generally well-tolerated
copper mobilization from tissue to blood compared with SoC, as measured by daily mean dNCC AUEC0-48 weeks (participants with WD; 48-week Primary Evaluation Period, overall mean daily dose 15.6 mg): approximately 3 fold
participants with Grade 2 ALT elevations during treatment (participants with WD; in vivo): approximately 15%
binding affinity to copper [2]: greater binding affinity to copper compared with other treatments
